Literature values as cited in US20080161405A1, “Biguanide Composition and Method of Treatment and Prevention of Infections” (priority 2006, published 2008).
Values after ≈ are worked out from the molar mass of the structure shown.

Columns and labels:
[1] = test system: Aspergillus keratitis; settings: 0.02%
[2] = test system: Fusarium Keratomycosis; settings: 0.02% solution, rabbit model
[3] = test system: Acanthamoeba keratitis; settings: case report, recurrence in the eye
[4] = test system: acanthamoeba cysts and trophazoites

Compound	effectiveness in experimental Aspergillus keratitis [1]	reduction of fungal growth [2]	treatment of recurrence of Acanthamoeba keratitis [3]	minimum inhibitory concentration [4] [mg/L]
poly(hexamethylene biguanide) [polyhexamethylene biguanide]	moderately effective	effective at reducing fungal growth	successfully treated	
CCCCC(CC)CNC(=N)NC(=N)NCCCCCCNC(=N)NC(=N)NCC(CC)CCCC (stereo not shown) [Alexidine, 1,1′-hexamethylene-bis[5-(2-ethylhexyl)biguanide]]				6.3 (≈ 12.4 µM)
